Reference: patent US4874773A, “3-Aminocarbonyl-1,4-dihydropyridine-5-carboxylic acid compounds, and pharmaceutical composition containing the same” (priority 1985, dated 1989)
pEC50: −log10 of the molar value. Entries after “also recorded” stand apart in the source; their conditions may differ. Where two headings read alike, the source gives them in different places.

What was measured:
[1] = tested on: Spontaneously hypertensive male rats; experiment: Experiment 1-1 Hypotensive activity (oral, conscious spontaneously hypertensive rats); type: in vivo, rat; settings: for Maximum hypotension: mean blood pressure; for hypotensive activity (in words): Table 4, comparison with nifedipine and nicardipine hydrochloride where stated
[2] = tested on: Spontaneously hypertensive male rats; experiment: Experiment 1-2 Hypotensive activity (oral, 8 hours); type: in vivo, rat; settings: for hypotensive activity (in words): Table 5, comparison with nifedipine and nicardipine hydrochloride where stated
Method: Spontaneously hypertensive male rats (13-15 week age, one group: 3 rats) were used. […] The rats were fixed in a Howlman cage without fasting, and the femoral arterial pressure was measured by a direct method without anesthesia with a cannula which was previously inserted into the femoral artery of the animal, via a pressure transducer (MPU-0.5, manufactured by Nippon Koden K.K.). The test compounds were orally administered in the form of a suspension in 0.5% methyl cellulose solution in a dose of 10 mg/kg (in some compounds, 3 mg/kg). In the control group, only 0.5% methyl cellulose solution was administered likewise. The blood pressure was measured for 5 hours after the administration of test compounds.
The hypotensive activity was measured in the same manner as described in Experiment 1-1 except that the rats were used in 3-5 rats per each group, and the test compounds were administered in a dose of 1 mg/kg (some compounds, 3 mg/kg), and the blood pressure was measured for 8 hours after the administration of test compounds.

isolated heart [3] = experiment: Experiment 2-1 Activity on isolated heart; set-up: species or system Japanese white rabbit; settings: for activation at 3 µg/heart / inhibition at 3 µg/heart, 3 µg/heart / inhibition at 3 µg/heart: Oryctolagus cuniculus, 3 μg/heart; for activation at 3 µg/heart: read-out: Increase of coronary perfusion; for inhibition at 3 µg/heart, 3 µg/heart: read-out: Inhibitory rate of systole; for inhibition at 3 µg/heart: read-out: Reducing rate of heart pulse
Method: Japanese white rabbit (weighing 2.2-2.5 kg) was anesthetized by introvenous injection of nembutal (20 mg/kg) and then sacrificed by bleeding from common carotid artery. […] After stabilizing the heart preparation for 90 minutes, the test compound was administered. There were measured the perfusion volume with a drop-counting meter (ET-600G type, manufactured by Nippon Koden K.K.) and the heart pulse and the contractility via a force-displacement transducer (FD pick up, SB-IT type, manufactured by Nippon Koden K.K.) (for measuring heart pulse, an instant pulse meter (AT-601G type, minufactured by Nippon Koden K.K.) being further used).

isolated heart [4] = experiment: Experiment 2-2 Activity onto the isolated heart (with duration); set-up: species or system Japanese white rabbit; settings: for Coronary perfusion Duration: time until perfusion volume returned to initial level
Method: Japanese white rabbit (weighing 2.2-2.5 kg) was anesthetized by introvenous injection of nembutal (20 mg/kg) and then sacrificed by bleeding from common carotid artery. […] There were measured the perfusion volume with a drop-counting meter (ET-600G type, manufactured by Nippon Koden K.K.) and the heart pulse and the contractility via a force-displacement transducer (FD pick up, SB-IT type, manufactured by Nippon Koden K.K.) (for measuring heart pulse, an instant pulse meter (AT-601G type, minufactured by Nippon Koden K.K.) being further used).
The test compounds were dissolved in ethanol, and the solution was diluted in 100-fold with purified water, and the diluted solution was administered in an amount of 0.1 ml/heart (i.e. 3 μg/heart).
The activity was measured in the same manner as described in Experiment 2-1 except that in some test compounds, the dose was in 1 μg/heart. Besides, the duration of the activity was evaluated by counting the time until the coronary perfusion volume became to the initial level before the administration of the test compound.

isolated aorta = experiment: Experiment 3 Relaxing activity on the isolated aorta (30 mM KCl contracted); set-up: species or system Japanese white rabbit; settings: for pEC50: Oryctolagus cuniculus, read-out: EC50 (concentration for 50% relaxation); for relaxing / vasodilating activity on isolated aorta (in words): Table 8, comparison with nifedipine and nicardipine hydrochloride, etc. where stated
Method: Japanese white rabbit (weighing 2.3-2.7 kg) was sacrificed by bleeding from common carotid artery. Immediately, the aorta was isolated and cut into a sprial strip. The strip preparation was vertically suspended under a resting tension of 2.0 g in a tissue bath containing 20 ml of modified Ringer solution while bubbling with a mixture of 95% O2 +5% CO2 by connecting one end of the strip to a lever of the above-mentioned FD pick up. The aortic strip was contracted with 30 mM KCl. When the contraction became constant, the test compound was accumulatively administered, and the relaxing effect was measured. After the final treatment, 10^-4T M papaverine was administered and the maximum relaxation obtained thereby was taken as 100%. In comparison with the maximum relaxation obtained by papaverine, the rate of relaxation by the test compounds was evaluated, and the concentration of the test compounds for obtaining 50% relaxation (EC50) was calculated.
The test compound was dissolved in ethanol, and the solution was diluted in 100 to 1×10^4 folds with a nutrient solution, and the diluted solution was administered.

[5] = Experiment 4-1 Acute toxicity; settings: rat, in vivo; oral, male rats, 5 week age, 7 days
Excerpt: Wistar male rats (5 week age, weighing 105-135 g) were used. The compounds of Example Nos. 2, 3 and 7 were each orally administered to the animals in the form of a suspension in 0.5% methyl cellulose solution.

[6] = Experiment 4-2 Acute toxicity, rats; settings: rat, in vivo, po, 4 week age, 7 days
Excerpt: (§1) Wistar male and female rats (4 week age) and ddy male and female mice (4 week age) were used. The compounds of Example Nos. 82 and 83 were each orally administered to […].

[7] = Experiment 4-2 Acute toxicity, mice; settings: mouse, in vivo, po, 4 week age, 7 days
Excerpt: as §1

[8] = Oryctolagus cuniculus, 3 μg/heart, read-out: Coronary perfusion Increase
[9] = Oryctolagus cuniculus, 3 μg/heart, read-out: Inhibitory rate of systole
[10] = Oryctolagus cuniculus, 3 μg/heart, read-out: Reducing rate of heart pulse
[11] = 30 mM KCl contraction, maximum relaxation by papaverine = 100%

## COC(=O)C1=C(C)NC(C)=C(C(=O)OCCN(C)Cc2ccccc2)C1c1cccc([N+](=O)[O-])c1.Cl (centres unmarked) [Compound B, methyl, N-benzyl-N-methylaminoethyl 1,4-dihydro-2,6-dimethyl-4-(3-nitrophenyl)-3,5-pyridinedicarboxylate hydrochloride, reference compound]
[1]; 10 mg/kg oral
  Recovering time: > 5.0 h
  Time for recovering 1/2 of max. hypotension: > 5.0 h
  Time until reaching to max. hypotension: 15 min
  Maximum hypotension: 57 mmHg
[2]; 3 mg/kg oral
  Maximum hypotension: 27 mmHg
  Recovering time: 3.0 to 4.0 h
  Time for recovering 1/2 of max. hypotension: 2.0 h
  Time until reaching to max. hypotension: 30 min
Isolated heart [3]
  activation at 3 µg/heart: 15%
  inhibition at 3 µg/heart, 3 µg/heart: 10%
  inhibition at 3 µg/heart: 5%
Isolated heart [4]; 3 μg/heart
  Coronary perfusion Duration: < 10 min
Isolated heart [4]; [8]
  activation at 3 µg/heart: 15%
Isolated heart [4]; [9]
  inhibition at 3 µg/heart: 10%
Isolated heart [4]; [10]
  inhibition at 3 µg/heart: 5%
Isolated aorta; [11]
  pEC50: 7.72

## CCCCCCCCCOC(=O)C1=C(C)NC(C)=C(C(=O)NC(C)C)C1c1ccccc1[N+](=O)[O-] (centres unmarked) [Example 3, n-nonyl 2,6-dimethyl-3-isopropylaminocarbonyl-4-(o-nitrophenyl)-1,4-dihydropyridine-5-carboxylate]
[1]; 3 mg/kg oral
  Recovering time: > 5.0 h
  Time for recovering 1/2 of max. hypotension: > 5.0 h
  Time until reaching to max. hypotension: 30 min
  Maximum hypotension: 60 mmHg
[1]; 10 mg/kg oral
  Recovering time: > 5.0 h
  Time for recovering 1/2 of max. hypotension: > 5.0 h
  Time until reaching to max. hypotension: 30 min
  Maximum hypotension: 91 mmHg
Isolated heart [3]
  activation at 3 µg/heart: 40%
  inhibition at 3 µg/heart, 3 µg/heart: 55%
  inhibition at 3 µg/heart: 20%
Isolated aorta; [11]
  pEC50: 6.74
[5]
  LD50 at 168 h: 500 to 1000 mg/kg

## CCCCCCCCOC(=O)C1=C(C)NC(C)=C(C(=O)NC(C)C)C1c1ccccc1[N+](=O)[O-] (centres unmarked) [Example 2, n-octyl 2,6-dimethyl-3-isopropylaminocarbonyl-4-(o-nitrophenyl)-1,4-dihydropyridine-5-carboxylate]
[1]; 3 mg/kg oral
  Recovering time: > 5.0 h
  Time for recovering 1/2 of max. hypotension: 5.0 h
  Time until reaching to max. hypotension: 30 min
  Maximum hypotension: 55 mmHg
[1]
  hypotensive activity (in words): the same or more potent activity with longer duration; also recorded: potent hypotensive activity
Isolated heart [3]
  activation at 3 µg/heart: 17%
  inhibition at 3 µg/heart, 3 µg/heart: 50%
  inhibition at 3 µg/heart: 25%
Isolated heart [3]; Table 6
  inhibitions on the heart pulse and contactility (in words): moderate inhibitions on the heart pulse and contactility
Isolated aorta; [11]
  pEC50: 6.52
Isolated aorta
  relaxing / vasodilating activity on isolated aorta (in words): somewhat weak vasodilating activity
[5]
  LD50 at 168 h: 10 to 100 mg/kg

## CCCCCCCCCOC(=O)C1=C(C)NC(C)=C(C(=O)NC2CC2)C1c1ccccc1[N+](=O)[O-] (centres unmarked) [Example 83, n-nonyl 2,6-dimethyl-3-cyclopropylaminocarbonyl-4-(o-nitrophenyl)-1,4-dihydropyridine-5-carboxylate]
[2]; 1 mg/kg oral
  Maximum hypotension: 61 mmHg
  Recovering time: > 8.0 h
  Time for recovering 1/2 of max. hypotension: > 8.0 h
  Time until reaching to max. hypotension: 180 min
[2]
  hypotensive activity (in words): the same or more potent hypotensive activity with longer duration; also recorded: potent hypotensive activity
Isolated heart [4]; 3 μg/heart
  Coronary perfusion Duration: > 120 min
Isolated heart [4]; Oryctolagus cuniculus, read-out: Coronary perfusion Increase
  activation at 3 µg/heart: 42%
Isolated heart [4]; Oryctolagus cuniculus, read-out: Inhibitory rate of systole
  inhibition at 3 µg/heart: 50%
Isolated heart [4]; Oryctolagus cuniculus, read-out: Reducing rate of heart pulse
  inhibition at 3 µg/heart: 20%
Isolated aorta
  pEC50: 6.54
  relaxing / vasodilating activity on isolated aorta (in words): somewhat weak vasodilating activity
[6]; female rats
  LD50 at 168 h: ≤ 10 mg/kg
[6]; male rats
  LD50 at 168 h: 100 to 500 mg/kg

## CCCCCCCCOC(=O)C1=C(C)NC(C)=C(C(=O)NC2CC2)C1c1ccccc1[N+](=O)[O-] (centres unmarked) [Example 82, n-octyl 2,6-dimethyl-3-cyclopropylaminocarbonyl-4-(o-nitrophenyl)-1,4-dihydropyridine-5-carboxylate]
[2]; 1 mg/kg oral
  Maximum hypotension: 48 mmHg
  Recovering time: > 8.0 h
  Time for recovering 1/2 of max. hypotension: > 8.0 h
  Time until reaching to max. hypotension: 180 min
[2]
  hypotensive activity (in words): the same or more potent hypotensive activity with longer duration; also recorded: potent hypotensive activity
Isolated heart [4]; 3 μg/heart
  Coronary perfusion Duration: > 120 min
Isolated heart [4]; [8]
  activation at 3 µg/heart: 39%
Isolated heart [4]; [9]
  inhibition at 3 µg/heart: 30%
Isolated heart [4]; [10]
  inhibition at 3 µg/heart: 25%
Isolated aorta; [11]
  pEC50: 6.36
Isolated aorta
  relaxing / vasodilating activity on isolated aorta (in words): somewhat weak vasodilating activity
[6]; female rats
  LD50 at 168 h: 50 mg/kg
[6]; male rats
  LD50 at 168 h: 320 mg/kg
[7]; female mice
  LD50 at 168 h: 1140 mg/kg
[7]; male mice
  LD50 at 168 h: 1280 mg/kg

## COC(=O)C1=C(C)NC(C)=C(C(=O)OC)C1c1ccccc1[N+](=O)[O-] [Compound A, dimethyl 1,4-dihydro-2,6-dimethyl-4-(2-nitophenyl)3,5-pyridinedicarboxylate, reference compound]
[1]; 10 mg/kg oral
  Recovering time: 4.0 h
  Time for recovering 1/2 of max. hypotension: 1.5 h
  Time until reaching to max. hypotension: 15 min
  Maximum hypotension: 49 mmHg
[2]; 1 mg/kg oral
  Maximum hypotension: 55 mmHg
  Recovering time: 3.0 to 4.0 h
  Time for recovering 1/2 of max. hypotension: 2.0 h
  Time until reaching to max. hypotension: 30 min
Isolated heart [3]
  activation at 3 µg/heart: 40%
  inhibition at 3 µg/heart, 3 µg/heart: 35%
  inhibition at 3 µg/heart: 10%
Isolated heart [4]; 3 μg/heart
  Coronary perfusion Duration: < 10 min
Isolated heart [4]; [8]
  activation at 3 µg/heart: 40%
Isolated heart [4]; [9]
  inhibition at 3 µg/heart: 35%
Isolated heart [4]; [10]
  inhibition at 3 µg/heart: 10%
Isolated aorta
  pEC50: 7.39

## CCCCCCOC(=O)C1=C(C)NC(C)=C(C(=O)NC(C)C)C1c1ccccc1[N+](=O)[O-] (centres unmarked) [Example 7, n-hexyl 2,6-dimethyl-3-isopropylaminocarbonyl-4-(o-nitrophenyl)-1,4-dihydropyridine-5-carboxylate]
[1]; 10 mg/kg oral
  Recovering time: > 5.0 h
  Time for recovering 1/2 of max. hypotension: 5.0 h
  Time until reaching to max. hypotension: 30 min
  Maximum hypotension: 45 mmHg
[1]
  hypotensive activity (in words): the same or more potent activity with longer duration; also recorded: potent hypotensive activity
Isolated heart [3]
  activation at 3 µg/heart: 45%
  inhibition at 3 µg/heart, 3 µg/heart: 30%
  inhibition at 3 µg/heart: 25%
Isolated heart [3]; Table 6
  inhibitions on the heart pulse and contactility (in words): moderate inhibitions on the heart pulse and contactility
Isolated heart [3]; Table 6, comparison with nifedipine and nicardipine hydrochloride, etc.
  coronary vasodilating activity (in words): the same or more potent coronary vasodilating activity with longer duration
Isolated aorta; [11]
  pEC50: 6.89
Isolated aorta
  relaxing / vasodilating activity on isolated aorta (in words): somewhat weak vasodilating activity
[5]
  LD50 at 168 h: > 1000 mg/kg

## C#CCNC(=O)C1=C(C)NC(C)=C(C(=O)OCCCCCCCC)C1c1ccccc1[N+](=O)[O-] (centres unmarked) [Example 78, n-octyl 2,6-dimethyl-3-propargylaminocarbonyl-4-(o-nitrophenyl)-1,4-dihydropyridine-5-carboxylate]
[2]; 1 mg/kg oral
  Maximum hypotension: 33 mmHg
  Recovering time: 5.0 h
  Time for recovering 1/2 of max. hypotension: 3.0 h
  Time until reaching to max. hypotension: 60 min
[2]
  hypotensive activity (in words): the same or more potent hypotensive activity with longer duration
Isolated heart [4]; 1 μg/heart
  Coronary perfusion Duration: 60 min
Isolated heart [4]; Oryctolagus cuniculus, 1 μg/heart, read-out: Coronary perfusion Increase
  activation at 1 µg/heart: 55%
Isolated heart [4]; Oryctolagus cuniculus, 1 μg/heart, read-out: Inhibitory rate of systole
  inhibition at 1 µg/heart: 35%
Isolated heart [4]; Oryctolagus cuniculus, 1 μg/heart, read-out: Reducing rate of heart pulse
  inhibition at 1 µg/heart: 10%
